Among the data in patent US10479780B2, “Aminopyrazole derivatives” (Chugai Seiyaku Kabushiki Kaisha, priority 2015, dated 2019) are IC50 values, retold here.

SMILES strings stand for the structures. Like-named read-outs stand apart in the source and are kept apart here.

What all share (format): biochemical
One assay concerns the target T1, human Yes1 enzyme (Homo sapiens, UniProt P07947).
T1 construct: made in house
Briefly: Yes1 enzyme inhibitory activity (time-resolved fluorometry, biotinylated peptide phosphorylation). As to conditions: read-out: YES_IC50. The procedure: (§1) 1. Yes1 Enzyme Inhibitory Activity Yes1 inhibitory activity was determined based on activity of inhibiting phosphorylation reaction of a biotinylated peptide (EGPWLEEEEEAYGWMDF) using a human Yes1 enzyme prepared using a baculovirus expression system. The phosphorylated biotinylated peptide was detected by time-resolved fluorometry using an anti-phosphorylated tyrosine antibody conjugated to europium cryptate, and streptavidin conjugated to XL665, an allophycocyanin derivative. The 50% inhibitory concentration (IC50) was calculated from the inhibition rate relative to the control group without containing the test substance.

The next assay deals with T2, human Src enzyme (Homo sapiens, UniProt P12931).
T2 construct: purchased Carna Biosciences, Inc. 08-173
Briefly: Src enzyme inhibitory activity (time-resolved fluorometry, biotinylated peptide phosphorylation). The conditions noted are these: read-out: SRC_IC50. The procedure: as §1, with “2. Src” for “1. Yes1”, “Src” for “Yes1”, “(manufactured by Carna Biosciences, Inc., cat 08-173).” for “prepared using a baculovirus expression system.”

In the next assay the target is T3, human Lck enzyme (Homo sapiens, UniProt P06239).
T3 construct: purchased Carna Biosciences, Inc. 08-170
Briefly: Lck enzyme inhibitory activity (time-resolved fluorometry, biotinylated peptide phosphorylation). The conditions noted are these: read-out: LCK_IC50. Here is the method: as §1, with “3. Lck” for “1. Yes1”, “Lck” for “Yes1”, “(manufactured by Carna Biosciences, Inc., cat 08-170).” for “prepared using a baculovirus expression system.”

[1] abbreviates: biotinylated peptide phosphorylation.

T3 sequence (P06239 whole entry): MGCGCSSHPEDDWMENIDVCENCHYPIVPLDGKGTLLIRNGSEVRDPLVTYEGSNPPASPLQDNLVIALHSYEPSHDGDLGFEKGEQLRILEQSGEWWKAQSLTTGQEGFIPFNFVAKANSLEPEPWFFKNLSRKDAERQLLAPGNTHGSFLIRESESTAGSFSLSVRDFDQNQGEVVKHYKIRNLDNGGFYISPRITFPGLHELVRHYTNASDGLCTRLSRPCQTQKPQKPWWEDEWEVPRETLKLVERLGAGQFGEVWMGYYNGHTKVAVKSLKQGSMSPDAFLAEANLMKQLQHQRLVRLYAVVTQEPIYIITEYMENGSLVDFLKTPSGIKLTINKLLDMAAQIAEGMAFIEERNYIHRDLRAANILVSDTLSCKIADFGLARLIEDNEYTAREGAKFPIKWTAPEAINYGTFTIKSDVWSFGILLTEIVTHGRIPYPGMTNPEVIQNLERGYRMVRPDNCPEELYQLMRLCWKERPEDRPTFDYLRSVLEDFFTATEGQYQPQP
T2 sequence (P12931 whole entry): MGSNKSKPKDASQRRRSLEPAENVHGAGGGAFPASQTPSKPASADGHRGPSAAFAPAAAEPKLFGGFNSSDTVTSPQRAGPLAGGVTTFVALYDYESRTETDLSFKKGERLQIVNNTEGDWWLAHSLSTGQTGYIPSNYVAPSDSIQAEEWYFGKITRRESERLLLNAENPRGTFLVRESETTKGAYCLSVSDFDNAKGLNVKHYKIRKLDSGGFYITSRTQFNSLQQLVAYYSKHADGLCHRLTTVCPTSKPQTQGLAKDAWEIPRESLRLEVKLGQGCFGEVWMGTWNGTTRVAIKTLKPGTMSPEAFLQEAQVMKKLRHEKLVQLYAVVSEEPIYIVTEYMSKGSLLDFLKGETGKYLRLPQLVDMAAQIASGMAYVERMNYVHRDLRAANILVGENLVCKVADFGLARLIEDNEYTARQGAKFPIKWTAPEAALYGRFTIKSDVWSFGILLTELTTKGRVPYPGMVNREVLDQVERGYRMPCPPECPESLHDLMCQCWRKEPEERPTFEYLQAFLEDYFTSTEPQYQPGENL
T1 sequence (P07947 whole entry): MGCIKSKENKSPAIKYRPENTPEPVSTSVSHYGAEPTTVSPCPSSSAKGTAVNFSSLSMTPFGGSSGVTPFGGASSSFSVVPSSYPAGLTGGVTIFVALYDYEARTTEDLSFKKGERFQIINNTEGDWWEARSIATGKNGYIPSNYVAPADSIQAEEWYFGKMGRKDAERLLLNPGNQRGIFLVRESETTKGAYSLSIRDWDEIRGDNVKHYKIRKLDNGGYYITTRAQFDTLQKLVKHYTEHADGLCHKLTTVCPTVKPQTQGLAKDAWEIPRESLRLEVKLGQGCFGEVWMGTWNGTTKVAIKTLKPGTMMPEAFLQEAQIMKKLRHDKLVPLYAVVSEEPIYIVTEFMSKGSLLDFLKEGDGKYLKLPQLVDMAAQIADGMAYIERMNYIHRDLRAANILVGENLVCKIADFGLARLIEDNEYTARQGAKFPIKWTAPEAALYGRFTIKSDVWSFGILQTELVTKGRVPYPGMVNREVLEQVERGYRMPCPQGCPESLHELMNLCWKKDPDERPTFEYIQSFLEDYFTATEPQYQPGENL

On to `Cc1cc(Oc2c(F)cccc2F)ncc1-n1ncc(C(=O)c2cc3cc(OC(F)F)c(NC4CCN(S(C)(=O)=O)CC4)cc3[nH]2)c1N` [Example 4-23-015, [5-amino-1-[6-(2,6-difluorophenoxy)-4-methylpyridin-3-yl]pyrazol-4-yl]-[5-(difluoromethoxy)-6-[(1-methylsulfonylpiperidin-4-yl)amino]-1H-indol-2-yl]methanone], for which the figures for the IC50 at human Yes1 enzyme (setting [1]), on human Src enzyme (setting [1]) and at human Lck enzyme (setting [1]) were 5.4 nM, 49 nM and 23 nM, respectively.
In the same order, the values of `COc1cc2cc(C(=O)c3cnn(-c4cnc(Oc5cccc(Cl)c5)cc4C)c3N)[nH]c2cc1NS(C)(=O)=O` [Example 4-1-011, N-[2-[5-amino-1-[6-(3-chlorophenoxy)-4-methylpyridin-3-yl]pyrazole-4-carbonyl]-5-methoxy-1H-indol-6-yl]methanesulfonamide] are 5.5 nM, 170 nM and 41 nM.
With `Cc1cc(Oc2c(F)cccc2F)ncc1-n1ncc(C(=O)c2cc3cc(OCC(F)F)c(N4C(=O)NC5(CCN(Cc6ccccc6)CC5)C4=O)cc3[nH]2)c1N` [Example 5-1-351, 3-[2-[5-amino-1-[6-(2,6-difluorophenoxy)-4-methylpyridin-3-yl]pyrazole-4-carbonyl]-5-(2,2-difluoroethoxy)-1H-indol-6-yl]-8-benzyl-1,3,8-triazaspiro[4.5]decane-2,4-dione], the IC50 came out at 0.65 nM at human Yes1 enzyme, 6 nM on human Src enzyme and 2.4 nM on human Lck enzyme.
Consider `Cc1cc(Oc2c(F)cccc2F)ncc1-n1ncc(C(=O)c2cc3cc(OCC(F)F)c(NS(=O)(=O)CCCF)cc3[nH]2)c1N` [Example 4-24-032, N-[2-[5-amino-1-[6-(2,6-difluorophenoxy)-4-methylpyridin-3-yl]pyrazole-4-carbonyl]-5-(2,2-difluoroethoxy)-1H-indol-6-yl]-3-fluoropropane-1-sulfonamide], for which the IC50 at human Yes1 enzyme (setting [1]) worked out at 0.64 nM; on human Src enzyme (setting [1]), 57 nM; on human Lck enzyme (setting [1]), 14 nM.
In the same order, the values of `Cc1cc(Oc2c(F)cccc2F)ncc1-n1ncc(C(=O)c2cc3cc(F)c(N4C(=O)CNC4=O)cc3[nH]2)c1N` [Example 5-1-405, 3-[2-[5-amino-1-[6-(2,6-difluorophenoxy)-4-methylpyridin-3-yl]pyrazole-4-carbonyl]-5-fluoro-1H-indol-6-yl]imidazolidine-2,4-dione] are 2.7 nM, 66 nM and 3.2 nM.
In the same order, the values of `Cc1cc(Oc2cccc(Cl)c2)ncc1-n1ncc(C(=O)c2cc3cc(F)c(NS(C)(=O)=O)cc3[nH]2)c1N` [Example 4-2-037, N-[2-[5-amino-1-[6-(3-chlorophenoxy)-4-methylpyridin-3-yl]pyrazole-4-carbonyl]-5-fluoro-1H-indol-6-yl]methanesulfonamide] are 1.1 nM, 78 nM and 30 nM.
Take `Cc1cc(Oc2c(F)cccc2F)ncc1-n1ncc(C(=O)c2cc3cc(OC(F)F)c(-n4c(C)cc(=O)[nH]c4=O)cc3[nH]2)c1N` [Example 5-1-072, 1-[2-[5-amino-1-[6-(2,6-difluorophenoxy)-4-methylpyridin-3-yl]pyrazole-4-carbonyl]-5-(difluoromethoxy)-1H-indol-6-yl]-6-methylpyrimidine-2,4-dione]: the IC50 at human Yes1 enzyme worked out at 7.7 nM; on human Src enzyme, 36 nM; on human Lck enzyme it was 8.2 nM.
In the case of `Cc1cc2cc(C(=O)c3cnn(-c4cnc(Oc5c(F)cccc5F)cc4C)c3N)[nH]c2cc1N1CCOCC1` [Example 4-2-124, [5-amino-1-[6-(2,6-difluorophenoxy)-4-methylpyridin-3-yl]pyrazol-4-yl]-(5-methyl-6-morpholin-4-yl-1H-indol-2-yl)methanone], the IC50 is 4.1 nM at human Yes1 enzyme (setting [1]), 34 nM at human Src enzyme (setting [1]) and 6.9 nM on human Lck enzyme (setting [1]).
For `Cc1cc(Oc2ccccc2F)ccc1-n1ncc(C(=O)c2cc3cc(F)c(NS(=O)(=O)c4c(F)cc(F)cc4F)cc3[nH]2)c1N` [Example 5-1-566, N-[2-[5-amino-1-[4-(2-fluorophenoxy)-2-methylphenyl]pyrazole-4-carbonyl]-5-fluoro-1H-indol-6-yl]-2,4,6-trifluorobenzenesulfonamide], in that order: 5.6 nM, 810 nM and 340 nM.
In the same order, the values of `Cc1cc2cc(C(=O)c3cnn(-c4cnc(Oc5ccccc5F)cc4C)c3N)[nH]c2cc1NS(=O)(=O)c1cc(F)cc(C#N)c1` [Example 5-1-497, N-[2-[5-amino-1-[6-(2-fluorophenoxy)-4-methylpyridin-3-yl]pyrazole-4-carbonyl]-5-methyl-1H-indol-6-yl]-3-cyano-5-fluorobenzenesulfonamide] are 4.7 nM, 660 nM and 170 nM.
On to `Cc1cc2cc(C(=O)c3cnn(-c4ccc(Oc5ccccc5F)cc4C)c3N)[nH]c2cc1N1C(=O)NC2(CCN(C3COC3)C2)C1=O` (stereo not drawn) [Example 5-1-393, 3-[2-[5-amino-1-[4-(2-fluorophenoxy)-2-methylphenyl]pyrazole-4-carbonyl]-5-methyl-1H-indol-6-yl]-7-(oxetan-3-yl)-1,3,7-triazaspiro [4.4]nonane-2,4-dione], for which the IC50 was 1 nM on human Yes1 enzyme, 9.8 nM at human Src enzyme and 4.6 nM on human Lck enzyme.
Regarding `Cc1cc(C)c(S(=O)(=O)Nc2cc3[nH]c(C(=O)c4cnn(-c5cnc(Oc6ccccc6F)cc5C)c4N)cc3cc2C)c(C)c1` [Example 5-1-461], the results for the IC50 at human Yes1 enzyme (setting [1]), at human Src enzyme (setting [1]) and at human Lck enzyme (setting [1]) were 17 nM, 3500 nM and 590 nM, respectively.
In the same order, the values of `Cc1cc(Oc2ccccc2F)ncc1-n1ncc(C(=O)c2cc3cc(F)c(NS(=O)(=O)c4cncc(Cl)c4)cc3[nH]2)c1N` [Example 5-1-544, N-[2-[5-amino-1-[6-(2-fluorophenoxy)-4-methylpyridin-3-yl]pyrazole-4-carbonyl]-5-fluoro-1H-indol-6-yl]-5-chloropyridine-3-sulfonamide] are 8.4 nM, 680 nM and 330 nM.
In the same order, the values of `Cc1cc2cc(C(=O)c3cnn(-c4cnc(Oc5ccccc5F)cc4C)c3N)[nH]c2cc1NS(=O)(=O)c1csc2ccccc12` [Example 5-1-467, N-[2-[5-amino-1-[6-(2-fluorophenoxy)-4-methylpyridin-3-yl]pyrazole-4-carbonyl]-5-methyl-1H-indol-6-yl]-1-benzothiophene-3-sulfonamide] are 24 nM, 3800 nM and 370 nM.
In the same order, the values of `Cc1cc(Oc2ccccn2)ccc1-n1ncc(C(=O)c2cc3cc(F)c(NS(=O)(=O)CCCF)cc3[nH]2)c1N` [Example 4-2-017, N-[2-[5-amino-1-(2-methyl-4-pyridin-2-yloxyphenyl)pyrazole-4-carbonyl]-5-fluoro-1H-indol-6-yl]-3-fluoropropane-1-sulfonamide] are 0.55 nM, 26 nM and 17 nM.
Turning to `Cc1cc(Oc2c(F)cccc2F)ncc1-n1ncc(C(=O)c2cc3cc(OCC(F)F)c(NS(=O)(=O)c4ccc(Cl)cc4)cc3[nH]2)c1N` [Example 5-1-298, N-[2-[5-amino-1-[6-(2,6-difluorophenoxy)-4-methylpyridin-3-yl]pyrazole-4-carbonyl]-5-(2,2-difluoroethoxy)-1H-indol-6-yl]-4-chlorobenzenesulfonamide], the IC50 at human Yes1 enzyme was found to be 8.9 nM; on human Src enzyme it was 630 nM; at human Lck enzyme, 93 nM.
